# According to patent publication US20140187784A1, “RADIOACTIVE QUINOLINONE DERIVATIVE AND PHARMACEUTICAL DRUG COMPRISING THE SAME” (Nihon Medi-Physics Co., Ltd., priority 2012, published 2014):
# Assay: Pharmacokinetic and distribution experiment (radioactivity in blood and excised organs after tail vein injection)
# Format: in vivo
# Conditions: ddy mice; for Adrenal gland/Blood ratio / Radioactivity Distribution, Blood / Radioactivity Distribution, Femur / Radioactivity Distribution, Heart / Radioactivity Distribution, Large intestine / Radioactivity Distribution, Lung / Radioactivity Distribution, Small intestine / Radioactivity Distribution, Spleen / Radioactivity Distribution, Stomach / Adrenal gland/Kidney ratio / Radioactivity Distribution, Adrenal gland / Radioactivity Distribution, Kidney / Radioactivity Distribution, Liver / Radioactivity Distribution, Pancreas / Adrenal gland/Liver ratio: tail vein injection; for Adrenal gland/Blood ratio / Radioactivity Distribution, Blood / Radioactivity Distribution, Femur / Radioactivity Distribution, Heart / Radioactivity Distribution, Large intestine / Radioactivity Distribution, Lung / Radioactivity Distribution, Small intestine / Radioactivity Distribution, Spleen / Radioactivity Distribution, Stomach: 14.8 kBq (4 μCi); for Adrenal gland/Kidney ratio / Radioactivity Distribution, Adrenal gland / Radioactivity Distribution, Kidney / Radioactivity Distribution, Liver / Radioactivity Distribution, Pancreas: 14.8 kBq
# Description: (§1) The HPLC fraction of [^125I]PAY15 obtained in Example 3 was concentrated and then diluted with saline. The resulting solution was used in administration. 100 μL of the solution (18.5 kBq (0.5 μCi)) was injected to the tail vein of each of five ddy mice (6 weeks old). Five minutes later, each mouse was decapitated, and blood was collected. Then, organs (adrenal gland, pancreas, heart, lung, stomach, small intestine, large intestine, liver, spleen, kidney, and thyroid gland) were excised. After measurement of their weights, the radioactivities of blood and each excised organ were measured. Also, the point in time when each mouse was decapitated was changed to 5, 15, 30, 60, and 120 minutes later to perform similar operation.
# The HPLC fraction of [^125I]PAY21 obtained in Example 6 was concentrated and then diluted with saline. The resulting solution was used in administration to perform the same operation as in Evaluation 1.
# as §1, with “[^18F]PAY27 obtained” for “The HPLC fraction of [^125I]PAY15 obtained”, “Example 10” for “Example 3”, “was” for “was concentrated and then”, “solution (14.8” for “solution (18.5”, “kBq (4” for “kBq (0.5”, “and thigh bone)” for “and thyroid gland)”
# as §1, with “[^18F]PAY54 obtained” for “The HPLC fraction of [^125I]PAY15 obtained”, “Example 13” for “Example 3”, “was” for “was concentrated and then”, “solution (14.8” for “solution (18.5”, “kBq (4” for “kBq (0.5”, “and thigh bone)” for “and thyroid gland)”
compound,measurement,setting,value
"O=C1CCc2cc(-c3cncc(OCC[18F])c3)cc3c2N1CCC3 [[^18F]PAY27, 9-(5-(2-[^18F]fluoroethyloxy)pyridin-3-yl)-1,2,6,7-tetrahydro-5H-pyrido[3,2,1-ij]quinolin-3-one]",radioactivity accumulation in the adrenal gland compared with blood and periadrenal tissues,at 60 minutes after administration,high radioactivity accumulation
same,Adrenal gland/Blood ratio,5 min,1.11 ± 0.17
same,"Radioactivity Distribution, Blood",5 min,4.0 ± 0.3 % dose/g
same,"Radioactivity Distribution, Femur",5 min,1.8 ± 0.1 % dose/g
same,"Radioactivity Distribution, Heart",5 min,3.9 ± 0.3 % dose/g
same,"Radioactivity Distribution, Large intestine",5 min,2.5 ± 0.2 % dose/g
same,"Radioactivity Distribution, Lung",5 min,3.7 ± 0.4 % dose/g
same,"Radioactivity Distribution, Small intestine",5 min,5.0 ± 0.4 % dose/g
same,"Radioactivity Distribution, Spleen",5 min,3.0 ± 0.2 % dose/g
same,"Radioactivity Distribution, Stomach",5 min,5.1 ± 0.4 % dose/g
same,Adrenal gland/Blood ratio,15 min,0.83 ± 0.12
same,"Radioactivity Distribution, Blood",15 min,4.1 ± 0.2 % dose/g
same,"Radioactivity Distribution, Femur",15 min,2.3 ± 0.1 % dose/g
same,"Radioactivity Distribution, Heart",15 min,3.6 ± 0.2 % dose/g
same,"Radioactivity Distribution, Large intestine",15 min,5.0 ± 0.4 % dose/g
same,"Radioactivity Distribution, Lung",15 min,3.6 ± 0.1 % dose/g
same,"Radioactivity Distribution, Small intestine",15 min,6.7 ± 0.6 % dose/g
same,"Radioactivity Distribution, Spleen",15 min,2.8 ± 0.2 % dose/g
same,"Radioactivity Distribution, Stomach",15 min,5.6 ± 1.1 % dose/g
same,Adrenal gland/Blood ratio,30 min,0.88 ± 0.18
same,"Radioactivity Distribution, Blood",30 min,3.6 ± 0.3 % dose/g
same,"Radioactivity Distribution, Femur",30 min,2.4 ± 0.2 % dose/g
same,"Radioactivity Distribution, Heart",30 min,3.2 ± 0.4 % dose/g
same,"Radioactivity Distribution, Large intestine",30 min,6.1 ± 0.4 % dose/g
same,"Radioactivity Distribution, Lung",30 min,2.7 ± 0.2 % dose/g
same,"Radioactivity Distribution, Small intestine",30 min,5.9 ± 0.5 % dose/g
same,"Radioactivity Distribution, Spleen",30 min,2.3 ± 0.1 % dose/g
same,"Radioactivity Distribution, Stomach",30 min,5.5 ± 0.4 % dose/g
same,Adrenal gland/Blood ratio,60 min,1.43 ± 0.47
same,"Radioactivity Distribution, Blood",60 min,3.3 ± 0.1 % dose/g
same,"Radioactivity Distribution, Femur",60 min,3.9 ± 0.2 % dose/g
same,"Radioactivity Distribution, Heart",60 min,3.0 ± 0.2 % dose/g
same,"Radioactivity Distribution, Large intestine",60 min,7.0 ± 0.6 % dose/g
same,"Radioactivity Distribution, Lung",60 min,2.6 ± 0.2 % dose/g
same,"Radioactivity Distribution, Small intestine",60 min,6.0 ± 0.7 % dose/g
same,"Radioactivity Distribution, Spleen",60 min,2.2 ± 0.2 % dose/g
same,"Radioactivity Distribution, Stomach",60 min,4.1 ± 0.9 % dose/g
same,Adrenal gland/Blood ratio,120 min,0.58 ± 0.44
same,"Radioactivity Distribution, Blood",120 min,2.8 ± 0.5 % dose/g
same,"Radioactivity Distribution, Femur",120 min,6.4 ± 0.4 % dose/g
same,"Radioactivity Distribution, Heart",120 min,2.4 ± 0.3 % dose/g
same,"Radioactivity Distribution, Large intestine",120 min,9.1 ± 1.4 % dose/g
same,"Radioactivity Distribution, Lung",120 min,2.1 ± 0.1 % dose/g
same,"Radioactivity Distribution, Small intestine",120 min,3.1 ± 0.6 % dose/g
same,"Radioactivity Distribution, Spleen",120 min,1.8 ± 0.2 % dose/g
same,"Radioactivity Distribution, Stomach",120 min,3.9 ± 0.6 % dose/g
same,Adrenal gland/Kidney ratio,5 min,1.00 ± 0.19
same,"Radioactivity Distribution, Adrenal gland",5 min,4.5 ± 0.8 % dose/g
same,"Radioactivity Distribution, Kidney",5 min,4.5 ± 0.3 % dose/g
same,"Radioactivity Distribution, Liver",5 min,6.5 ± 1.0 % dose/g
same,"Radioactivity Distribution, Pancreas",5 min,3.0 ± 0.4 % dose/g
same,Adrenal gland/Kidney ratio,15 min,0.99 ± 0.23
same,"Radioactivity Distribution, Adrenal gland",15 min,3.4 ± 0.5 % dose/g
same,"Radioactivity Distribution, Kidney",15 min,3.5 ± 0.3 % dose/g
same,"Radioactivity Distribution, Liver",15 min,5.1 ± 0.3 % dose/g
same,"Radioactivity Distribution, Pancreas",15 min,2.5 ± 0.2 % dose/g
same,Adrenal gland/Kidney ratio,30 min,1.40 ± 0.28
same,"Radioactivity Distribution, Adrenal gland",30 min,3.2 ± 0.6 % dose/g
same,"Radioactivity Distribution, Kidney",30 min,2.3 ± 0.2 % dose/g
same,"Radioactivity Distribution, Liver",30 min,4.1 ± 0.5 % dose/g
same,"Radioactivity Distribution, Pancreas",30 min,2.0 ± 0.1 % dose/g
same,Adrenal gland/Kidney ratio,60 min,1.88 ± 0.55
same,"Radioactivity Distribution, Adrenal gland",60 min,4.7 ± 1.7 % dose/g
same,"Radioactivity Distribution, Kidney",60 min,2.5 ± 0.4 % dose/g
same,"Radioactivity Distribution, Liver",60 min,3.7 ± 0.3 % dose/g
same,"Radioactivity Distribution, Pancreas",60 min,2.0 ± 0.1 % dose/g
same,Adrenal gland/Kidney ratio,120 min,0.99 ± 0.77
same,"Radioactivity Distribution, Adrenal gland",120 min,2.2 ± 1.2 % dose/g
same,"Radioactivity Distribution, Kidney",120 min,1.7 ± 0.1 % dose/g
same,"Radioactivity Distribution, Liver",120 min,2.9 ± 0.5 % dose/g
same,"Radioactivity Distribution, Pancreas",120 min,1.5 ± 0.2 % dose/g
same,Adrenal gland/Liver ratio,5 min,0.70 ± 0.16
same,Adrenal gland/Liver ratio,15 min,0.67 ± 0.06
same,Adrenal gland/Liver ratio,30 min,0.79 ± 0.20
same,Adrenal gland/Liver ratio,60 min,1.26 ± 0.37
same,Adrenal gland/Liver ratio,120 min,0.58 ± 0.46
